Reference: patent EP3074389B1, “QUINOLINE DERIVATIVES AS BROMODOMAIN INHIBITORS” (Gilead Sciences, Inc., priority 2013, dated 2015)

Experiments:
BRD4 domain 2 = BRD4 domain 2 (Homo sapiens, UniProt O60885); assay: Kd determination of inhibitors binding to BRD4 domain 2 (Epic label-free platform); details: direct binding to immobilized BRD4 domain 2; tripling dilution series from 20µM; about 1hr equilibrium; rounded to whole number
Experimental: (§1) Kd Determination of Inhibitors Binding to BRD4 Domain 1 and Domain 2
(§2) The binding of small molecule inhibitors to either BRD4 domain 1 or domain 2 were determined using the Epic, high-throughput, label-free platform (Corning, Lowell, MA). The Epic instrument incorporates an evanescent waveguide sensor within each well of its proprietary 384-well microplates. Direct binding of inhibitors to BRD4 immobilized onto the microplate well surface can be detected by exposing the waveguide to a broadband light source. The resulting resonant wavelength shift (measured in picometers (pm)) is proportional to the mass bound to the surface. Epic biochemical plates (Corning, Lowell, MA) were activated by adding 15 µL/well of 200 mM EDC and 50 mM Sulfo-NHS (Pierce Thermo Scientific, Rockford, IL) and incubated for 60 minutes at room temperature. Plates were washed three times with MilliQ water and dried by centrifugation (1 minute at 400 rpm). BRD4 immobilization was accomplished by resuspending the protein at a concentration of 150 µg/mL in 20 mM HEPES (pH 7) and adding 10 µL/well. […] Compound/inhibitor binding was determined by calculating difference between the baseline (first read) and second read. The resulting binding response was fitted to a single site binding isotherm in order to determine an equilibrium dissociation constant (Kd).

BRD4 domain 1 = BRD4 domain 1 (Homo sapiens, UniProt O60885); assay: Kd determination of inhibitors binding to BRD4 domain 1 (Epic label-free platform); details: direct binding to immobilized BRD4 domain 1; tripling dilution series from 20µM; about 1hr equilibrium; rounded to whole number; read-out: Epic Kd BRD41
Experimental: as §1, §2

SMILES	Kd (BRD4 domain 2)	Kd (BRD4 domain 1)
Cc1noc(C)c1-c1cc(S(=O)(=O)N[C@@H]2CCC[C@H]2N)c2cccnc2c1 (stereo in doubt) [Compound 46, N-((1R,2R)-2-aminocyclopentyl)-7-(3,5-dimethylisoxazol-4-yl)quinoline-5-sulfonamide]	7.83 µM	6.42 µM
Cc1noc(C)c1-c1cc(S(=O)(=O)NC2CCCC2)c2ccc(C(F)F)nc2c1 [Compound 2, N-cyclopentyl-2-(difluoromethyl)-7 - (3,5-dimethylisoxazol-4-yl)quinoline-5-sulfonamide]	1.32 µM	3.38 µM
Cc1noc(C)c1-c1cc(S(=O)(=O)NC2CCCC2)c2ccc(Cl)nc2c1 [Compound 3, 2-chloro-N-cyclopentyl-7-(3,5-dimethylisoxazol-4-yl)quinoline-5-sulfonamide]	2.97 µM	1.25 µM
Cc1noc(C)c1-c1cc(S(=O)(=O)NC2CCCC2)c2ccc(C3CC3)nc2c1 [Compound 4, N-cyclopentyl-2-cyclopropyl-7-(3,5-dimethylisoxazol-4-yl)quinoline-5-sulfonamide]	3.5 µM	1.44 µM
Cc1noc(C)c1-c1cc(S(=O)(=O)NC2CCCC2)c2ccc(NCC3CC3)nc2c1 [Compound 5, N-cyclopentyl-2-((cyclopropylmethyl)amino)-7-(3,5-dimethylisoxazol-4-yl)quinoline-5-sulfonamide]	1.46 µM	1.06 µM
Cc1noc(C)c1-c1cc(S(=O)(=O)NC2CCCC2)c2ccc(OCC3CC3)nc2c1 [Compound 6, N-cyclopentyl-2-(cyclopropylmethoxy) -7-(3,5-dimethylisoxazol-4-yl)quinoline-5-sulfonamide]	2.04 µM	2.11 µM
Cc1noc(C)c1-c1cc(S(=O)(=O)NC2CC2)c2cccnc2c1 [Compound 8, N-cyclopropyl-7-(3,5-dimethylisoxazol-4-yl)quinoline-5-sulfonamide]	2.25 µM	3.95 µM
Cc1noc(C)c1-c1cc(S(=O)(=O)N(C)C2CC2)c2cccnc2c1 [Compound 9, N-cyclopropyl-7-(3,5-dimethylisoxazol-4-yl)-N-methylquinoline-5-sulfonamide]	12.5 µM	> 20 µM
Cc1noc(C)c1-c1cc(S(=O)(=O)NC2CCC2)c2cccnc2c1 [Compound 10, N-cyclobutyl-7-(3,5-dimethylisoxazol-4-yl)quinoline-5-sulfonamide]	2.68 µM	3.19 µM
Cc1noc(C)c1-c1cc(S(=O)(=O)NCC2CC(F)(F)C2)c2cccnc2c1 [Compound 11, N-((3,3-difluorocyclobutyl)methyl)-7-(3,5-dimethylisoxazol-4-yl)quinoline-5-sulfonamide]	> 20 µM	12.8 µM
Cc1noc(C)c1-c1cc(S(=O)(=O)N[C@@H]2C[C@H]2c2ccccc2)c2cccnc2c1 [Compound 12, 7-(3,5-dimethylisoxazol-4-yl)-N-((1R,2S)-2-phenylcyclopropyl)qui noline-5-sulfonamide]	> 20 µM	15.8 µM
Cc1noc(C)c1-c1cc(S(=O)(=O)N[C@@H]2CCC[C@@H]2c2ccc(F)cc2)c2cccnc2c1 [Compound 13, 7-(3,5-dimethylisoxazol-4-yl)-N-((1R,2R)-2-(4-fluorophenyl)cyclopentyl)quinoline-5-sulfonamide]	12.4 µM	10 µM
Cc1noc(C)c1-c1cc(S(=O)(=O)NCC2CC2)c2cccnc2c1 [Compound 15, N-(cyclopropylmethyl)-7-(3,5-dimethylisoxazol-4-yl)quinoline-5-sulfonamide]	5.9 µM	9.43 µM
COc1ccc2c(S(=O)(=O)NC3CCCC3)cc(-c3c(C)noc3C)cc2n1 [Compound 16, N-cyclopentyl-7-(3,5-dimethylisoxazol-4-yl)-2-methoxyquinoline-5 - sulfonamide]	6.3 µM	3.37 µM
Cc1noc(C)c1-c1cc(S(=O)(=O)NC2CCCC2)c2ccc(N)nc2c1 [Compound 17, 2-amino-N-cyclopentyl-7-(3,5-dimethylisoxazol-4-yl)quinoline-5-sulfonamide]	1.11 µM	0.885 µM
Cc1noc(C)c1-c1cc(S(=O)(=O)NC2CCCC2)c2cccnc2c1Cl [Compound 18, 8-chloro-N-cyclopentyl-7-(3,5-dimethylisoxazol-4-yl)quinoline-5-sulfonamide]	4.26 µM	9.15 µM

SMILES	Kd (BRD4 domain 2)	Kd (BRD4 domain 1)
Cc1noc(C)c1-c1cc(S(=O)(=O)N[C@H]2CC[C@@H](O)C2)c2cccnc2c1 [Compound 19, 7-(3,5-dimethylisoxazol-4-yl)-N-((1S,3R)-3-hydroxycyclopentyl)q uinoline-5-sulfonamide]	7.72 µM	16.6 µM
Cc1noc(C)c1-c1cc(S(=O)(=O)N[C@@H]2CCC[C@H](O)C2)c2cccnc2c1 [Compound 20, 7-(3,5-dimethylisoxazol-4-yl)-N-((1R,3S)-3-hydroxycyclohexyl)qu inoline-5-sulfonamide]	4.79 µM	5.75 µM
Cc1noc(C)c1-c1cc(S(=O)(=O)N[C@H]2CC[C@H](O)CC2)c2cccnc2c1 [Compound 21, 7-(3,5-dimethylisoxazol-4-yl)-N-((1r,4r)-4-hydroxycyclohexyl)qu inoline-5-sulfonamide]	17.3 µM	10.4 µM
Cc1noc(C)c1-c1cc(S(=O)(=O)NC2CCCC2)c2cc(Br)c(=O)[nH]c2c1 [Compound 22, 3-bromo-N-cyclopentyl-7-(3,5-dimethylisoxazol-4-yl)-2-oxo-1,2-dihydroquinoline-5-sulfonamide]	0.501 µM	1.02 µM
Cc1noc(C)c1-c1cc(S(=O)(=O)N[C@@H]2CCC[C@@H]2O)c2cccnc2c1 [Compound 23, 7-(3,5-dimethylisoxazol-4-yl)-N-((1R,2S)-2-hydroxycyclopentyl)q uinoline-5-sulfonamide]	16.7 µM	19.5 µM
Cc1noc(C)c1-c1cc(S(=O)(=O)NC2(C)CCCC2)c2cccnc2c1 [Compound 24, 7-(3,5-dimethylisoxazol-4-yl)-N-(1-methylcyclopentyl)qui noline-5-sulfonamide]	2.11 µM	3.55 µM
Cc1noc(C)c1-c1cc(S(=O)(=O)N[C@H]2C[C@@H](NC(=O)OC(C)(C)C)C2)c2cccnc2c1 [Compound 25, tert-butyl ((1s,3s)-3-(7-(3,5-dimethylisoxazol-4-yl)quinoline-5-sulfonamido)cyclobutyl)carbamate]	> 20 µM	16.2 µM
Cc1noc(C)c1-c1cc(S(=O)(=O)N[C@@H]2CCC[C@H]2O)c2cccnc2c1 [Compound 26, 7-(3,5-dimethylisoxazol-4-yl)-N-((1R,2R)-2-hydroxycyclopentyl)q uinoline-5-sulfonamide]	3.55 µM	4.09 µM
Cc1noc(C)c1-c1cc(S(=O)(=O)N[C@H]2CCC[C@H]2O)c2cccnc2c1 [Compound 27, 7-(3,5-dimethylisoxazol-4-yl)-N-((1S,2R)-2-hydroxycyclopentyl)q uinoline-5-sulfonamide]	6.8 µM	12.5 µM
Cc1noc(C)c1-c1cc(S(=O)(=O)NC2CCCC2)c2cc(-c3ccc(F)cc3)c(=O)[nH]c2c1 [Compound 28, N-cyclopentyl-7-(3,5-dimethylisoxazol-4-yl)-3-(4-fluorophenyl)-2-oxo-1,2-dihydroquinoline-5-sulfonamide]	0.555 µM	0.348 µM
Cc1noc(C)c1-c1cc(S(=O)(=O)NC2CCCC2)c2cc(-c3cccnc3)c(=O)[nH]c2c1 [Compound 29, N-cyclopentyl-7-(3,5-dimethylisoxazol-4-yl)-2-oxo-3-(pyridin-3-yl)-1,2-dihydroquinoline-5-sulfonamide]	0.241 µM	0.253 µM
Cc1noc(C)c1-c1cc(S(=O)(=O)NC2CCCC2)c2cc(-c3cnc(C)n3C)c(=O)[nH]c2c1 [Compound 30, N-cyclopentyl-3-(1,2-dimethyl-1H-imidazol-5-yl)-7-(3,5-dimethylisoxazol-4-yl)-2-oxo-1,2-dihydroquinoline-5-sulfonamide]	1.7 µM	6.4 µM
Cc1noc(C)c1-c1cc(S(=O)(=O)NC2CCCC2)c2cc(C#N)c(=O)[nH]c2c1 [Compound 31, 3-cyano-N-cyclopentyl-7-(3,5-dimethylisoxazol-4-yl)-2-oxo-1,2-dihydroquinoline-5-sulfonamide]	0.634 µM	0.867 µM
Cc1noc(C)c1-c1cc(S(=O)(=O)NC2CCCC2)c2cc(-n3ccnc3)c(=O)[nH]c2c1 [Compound 32, N-cyclopentyl-7-(3,5-dimethylisoxazol-4-yl)-3-(1H-imidazol-1-yl)-2-oxo-1,2-dihydroquinoline-5-sulfonamide]	0.519 µM	0.717 µM
Cc1noc(C)c1-c1cc(S(=O)(=O)NC2CCCC2)c2cc(-n3cccn3)c(=O)[nH]c2c1 [Compound 33, N-cyclopentyl-7-(3,5-dimethylisoxazol-4-yl)-2-oxo-3-(1H-pyrazol-1-yl)-1,2-dihydroquinoline-5-sulfonamide]	0.561 µM	0.76 µM
Cc1noc(C)c1-c1cc(S(=O)(=O)N[C@H]2C[C@@H](N)C2)c2cccnc2c1 [Compound 34, N-((1S,3S)-3-aminocyclobutyl)-7-(3,5-dimethylisoxazol-4-yl)quinoline-5-sulfonamide]	11.1 µM	5.48 µM
